PubChem BioAssay (NCI)
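48-hour exposure; five concentrations; linearly interpolated endpoints. Here, GI50 denotes the concentration required for 50% inhibition of growth. TGI marks complete inhibition of growth.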

Tests used:
Experiment in all cases: inhibition of tumour cell growth, NCI panel, 48 h
HCT-116 colon = tested on: HCT-116 colon
BT-549 breast = tested on: BT-549 breast
CAKI-1 renal = tested on: CAKI-1 renal
A549 NSCLC = tested on: A549 NSCLC
DU-145 prostate = tested on: DU-145 prostate
NCI/ADR-RES ovarian = tested on: NCI/ADR-RES ovarian
EKVX NSCLC = tested on: EKVX NSCLC
NCI-H522 lung = tested on: NCI-H522 lung
UACC-62 melanoma = tested on: UACC-62 melanoma
MALME-3M melanoma = tested on: MALME-3M melanoma

Compound	GI50 (HCT-116 colon) [µM]	TGI (HCT-116 colon) [µM]	GI50 (BT-549 breast) [µM]	TGI (BT-549 breast) [µM]	GI50 (CAKI-1 renal) [µM]	TGI (CAKI-1 renal) [µM]	GI50 (A549 NSCLC) [µM]	TGI (A549 NSCLC) [µM]	GI50 (DU-145 prostate) [µM]	TGI (DU-145 prostate) [µM]	GI50 (NCI/ADR-RES ovarian) [µM]	TGI (NCI/ADR-RES ovarian) [µM]	GI50 (EKVX NSCLC) [µM]	TGI (EKVX NSCLC) [µM]	GI50 (NCI-H522 lung) [µM]	TGI (NCI-H522 lung) [µM]	GI50 (UACC-62 melanoma) [µM]	TGI (UACC-62 melanoma) [µM]	TGI (MALME-3M melanoma) [µM]	GI50 (MALME-3M melanoma) [µM]
ClCc1ccccc1Cn1cnc2c(Cl)ncnc21	1.91	3.69	2	5.51	1.83	4.14	7.73	25.8	5.65	34.4	2.21	4.72	3.11	11	1.82	7.24	3.28	6.66	–	–
COc1cc(C(C)c2cc3c(cc2OCCNC(=O)COc2cc4c(cc2C(C)c2cc(OC)c(OC)c(OC)c2)OCO4)OCO3)cc(OC)c1OC (stereo not drawn)	–	> 100	–	–	–	> 100	–	> 100	–	–	–	–	–	> 100	–	92.6	–	> 100	> 100	–
COc1ccc2c(c1)NC1(O)c3ccccc3C(=O)C21O (stereo not drawn)	–	> 100	–	–	–	> 100	–	> 100	–	–	–	–	–	–	–	> 100	–	> 100	> 100	–
N/N=C(\c1nc2ccc(Cl)cc2[nH]c1=O)C(O)c1ccc(Cl)c(Cl)c1 (stereo not drawn)	–	> 100	–	–	–	–	–	> 100	–	–	–	–	–	> 100	–	> 100	–	> 100	> 100	–
CCCN(CCC)C(=O)c1nc(N)nc(-c2ccc(OC)cc2)c1-c1ccc(OC)cc1	–	> 100	–	–	–	> 100	–	> 100	–	–	–	–	–	> 100	–	> 100	–	> 100	> 100	–
Cn1nc(C(F)(F)F)c(-c2cc(C(F)(F)F)cc(C(F)(F)F)c2)c1-c1ccc(OCc2ccc(Cl)cc2)cc1O	1.62	3.81	1.67	3.33	2.11	5.9	3.18	11.7	3.9	14.8	2.81	9.8	–	–	1.94	9.16	1.45	4.05	5.24	1.99
CC(C)(C)N/N=C(\C(=O)Nc1nc(=S)[nH][nH]1)C1C(=O)Nc2ccccc2S1=O (stereo not drawn)	–	> 100	–	–	–	> 100	–	> 100	–	–	–	–	–	> 100	–	> 100	–	> 100	> 100	–
O=C(Nc1ccccc1-c1nn(CN2CCNCC2)c(=S)n(CN2CCNCC2)c1=O)C(F)(F)F	–	32.5	–	–	–	55.2	–	52.4	–	–	–	–	–	32.2	–	–	–	32.5	32.9	–
COC(=O)C(=O)C(C(=O)C(=O)Nc1ccccc1OC)c1nc2ccc([N+](=O)[O-])cc2[nH]c1=O (stereo not drawn)	–	> 100	–	> 100	–	> 100	–	> 100	–	–	–	> 100	–	> 100	–	> 100	–	> 100	> 100	–
Cc1nc(/C=C2\C(=O)C=Cc3ccccc32)c(O)o1	–	> 100	–	–	–	–	–	> 100	–	–	–	–	–	> 100	–	> 100	–	> 100	> 100	–
NC(N)=NC(N)=NCCCc1ccco1	90.2	335	39.6	152	92.4	247	> 500	> 500	140	> 500	66.4	247	–	–	> 500	> 500	37.8	111	66.2	18.7
CC(=O)NNc1nc(C)c(C(=O)/C=C/c2ccc(Cl)cc2)s1	–	–	–	–	–	> 100	–	> 100	–	–	–	–	–	> 100	–	> 100	–	> 100	> 100	–
COc1ccc2oc(-c3ccc(OC)c(OC)c3OC)cc(=O)c2c1	–	> 100	–	–	–	> 100	–	> 100	–	–	–	–	–	> 100	–	68.3	–	> 100	> 100	–
O=S(=O)(N=NC=C1c2ccccc2N(O)c2ccccc21)c1ccc(Cl)cc1	–	> 100	–	–	–	> 100	–	> 100	–	–	–	–	–	> 100	–	> 100	–	> 100	> 100	–
COC1CCC(OC)C(C2(C3CC(OC)CCC3OC)OC(=O)c3ccccc32)C1 (stereo not drawn)	–	> 100	–	–	–	> 100	–	> 100	–	–	–	–	–	> 100	–	52.1	–	> 100	> 100	–
COC(=O)/C(C#N)=C(\N)C(Cl)(Cl)Cl	–	2.25	–	–	–	17.5	–	12.7	–	–	–	–	–	17.8	–	4.14	–	2.86	–	–
COC(=O)C1CC(OC(C)=O)C=C2C(=O)CCC21 (stereo not drawn)	–	29.8	–	–	–	55.8	–	> 100	–	–	–	–	–	–	–	3.75	–	35.9	63.8	–
CCOC(=O)C12C(C(=O)OC)=C(C)N(NC(=O)Nc3ccccc3)C1(N)N(NC(=O)Nc1ccccc1)C(C)=C2C(=O)OC (stereo not drawn)	–	59.4	–	–	–	> 100	–	> 100	–	–	–	–	–	> 100	–	55.3	–	34.5	50.7	–
COc1cc(NS(C)(=O)=O)ccc1NCc1c2ccccc2nc2ccccc12	–	36.6	–	–	–	> 100	–	> 100	–	–	–	–	–	> 100	–	77.3	–	> 100	> 100	–
CCOc1ccc(NCC2CC/C(=C\c3ccccc3OC)C2=O)cc1 (stereo not drawn)	–	14.5	–	–	–	25.4	–	35.6	–	–	–	–	–	31.9	–	4.36	–	25.5	27.6	–
Cc1cccc(C)c1N1C(=O)C(=O)C(c2nc3ccccc3s2)/C(=N/NC(=O)c2ccccc2O)C1=O (stereo not drawn)	–	> 79.5	–	–	–	> 29.8	–	> 100	–	–	–	–	–	> 100	–	39.6	–	8.31	> 100	–
C=C1C(=O)O[C@H]2[C@H]1CC/C(COC(=O)CCCc1c[nH]c3ccccc13)=C\CC[C@@]1(C)O[C@@H]21	0.963	2.36	1.37	3.06	–	–	5.47	22.4	1.67	3.18	2.9	10.9	2.02	5.01	1.57	3.47	1.84	3.79	3.56	1.79
